Measurements as given in patent US20120010241A1, “HSP90 INHIBITING INDAZOLE DERIVATIVES, COMPOSITIONS CONTAINING SAME AND USE THEREOF” (SANOFI, priority 2009, published 2012).

Columns and labels:
[1] = test system: Her2 expression in SKBr3 cells; assay: phenotypic SKBr3/HER2 cell test (Her2 expression at the cell surface, flow cytometry); format: cell-based; details: Homo sapiens, SK-BR-3, incubation for 24 h, anti-Her2 antibody coupled to PE, FACS
Procedure: The cellular activity of the compounds can in particular be evaluated by means of the phenotypic “SKBr3/HER2” cell test described below:
The SKBr3 […] adenocarcinoma cells, overexpressing the Her2 tyrosine kinase receptor, originate from the ATCC (HTB-30) and are cultured in McCoy's 5A medium supplemented with 10% FBS and 1% L-glutamine.
The cells are seeded in 12-well plates at a proportion of 125 000 cells per well in 1 ml of complete medium. The following day, the products are added at varying concentrations. After incubation for 24 h, the cells are trypsinized, washed with PBS and incubated with 100 ng of anti-Her2 antibody coupled to PE (phycoerythrin) (BD 340552) for 30 minutes at 4° C. in the dark. The fluorescence due to the expression of the Her2 receptor at the surface of the cells is then read using a FACS Calibur flow cytometer (Becton-Dickinson). The percentage inhibition of Her2 expression as a function of the concentrations of product tested is fitted by the nonlinear regression technique (XLfit, equation 205) in order to measure the IC50 for each product.

Hsp82 = Hsp82 (Saccharomyces cerevisiae, UniProt P02829); assay: Hsp82/ATPase test (PK/LDH coupled spectrophotometric method; malachite green method also described); format: biochemical; details: 1 μM Hsp82, 250 μM ATP, 37° C., absorbance at 340 nm
Procedure: The biochemical activity of the compounds can in particular be evaluated by means of the “Hsp82/ATPase” test described below:
The inorganic phosphate released during the hydrolysis of ATP by the ATPase activity of Hsp82 is quantified by the malachite green method. In the presence of this reagent, formation of the inorganic phosphate-molybdate-malachite green complex, which absorbs at a wavelength of 620 nm, occurs.
The products to be evaluated are incubated in a reaction volume of 30 μl, in the presence of 1 μM Hsp82 and of 250 μM of substrate (ATP) in a buffer composed of 50 mM Hepes-NaOH (pH 7.5), 1 mM DTT, 5 mM MgCl2 and 50 mM KCl at 37° C. for 60 min. In parallel, an inorganic phosphate range of between 1 and 40 μM is made up in the same buffer. […] The inorganic phosphate concentration of each sample is then calculated from the standard curve. The ATPase activity of Hsp82 is expressed as concentration of inorganic phosphate produced in 60 minutes. The effect of the various products tested is expressed as percentage inhibition of the ATPase activity.
The formation of ADP due to the ATPase activity of Hsp82 was used to develop another method for evaluating the enzyme activity of this enzyme by application of an enzymatic coupling system involving pyruvate kinase (PK) and lactate dehydrogenase (LDH). In this kinetic-type spectrophotometric method, PK catalyses the formation of ATP and of pyruvate from phosphoenol pyruvate (PEP) and the ADP produced by Hsp82. The pyruvate formed, which is a substrate for LDH, is subsequently converted to lactate in the presence of NADH. In this case, the decrease in the NADH concentration, measured through the decrease in absorbance at the wavelength of 340 nm, is proportional to the concentration of ADP produced by Hsp82.
The products tested are incubated in a reaction volume of 100 μl of buffer composed of 100 mM Hepes-NaOH (pH 7.5), 5 mM MgCl2, 1 mM DTT, 150 mM KCl, 0.3 mM NADH, 2.5 mM PEP and 250 μM ATP. This mixture is preincubated at 37° C. for 30 minutes before the addition of 3.77 units of LDH and 3.77 units of PK. The reaction is initiated by addition of the product to be evaluated, in varying concentrations, and of Hsp82, at the concentration of 1 μM. The enzymatic activity of Hsp82 is then measured continuously, in a microplate reader, at 37° C., at the wavelength of 340 nm. The initial rate of the reaction is obtained by measuring the slope of the tangent to the origin of the curve recorded. The enzymatic activity is expressed in μM of ADP formed per minute. The effect of the various products tested is expressed as 50% inhibitory concentration (1050) with respect to the ATPase activity, according to the codification below: […]

Hsp82, sequence (P02829 whole entry): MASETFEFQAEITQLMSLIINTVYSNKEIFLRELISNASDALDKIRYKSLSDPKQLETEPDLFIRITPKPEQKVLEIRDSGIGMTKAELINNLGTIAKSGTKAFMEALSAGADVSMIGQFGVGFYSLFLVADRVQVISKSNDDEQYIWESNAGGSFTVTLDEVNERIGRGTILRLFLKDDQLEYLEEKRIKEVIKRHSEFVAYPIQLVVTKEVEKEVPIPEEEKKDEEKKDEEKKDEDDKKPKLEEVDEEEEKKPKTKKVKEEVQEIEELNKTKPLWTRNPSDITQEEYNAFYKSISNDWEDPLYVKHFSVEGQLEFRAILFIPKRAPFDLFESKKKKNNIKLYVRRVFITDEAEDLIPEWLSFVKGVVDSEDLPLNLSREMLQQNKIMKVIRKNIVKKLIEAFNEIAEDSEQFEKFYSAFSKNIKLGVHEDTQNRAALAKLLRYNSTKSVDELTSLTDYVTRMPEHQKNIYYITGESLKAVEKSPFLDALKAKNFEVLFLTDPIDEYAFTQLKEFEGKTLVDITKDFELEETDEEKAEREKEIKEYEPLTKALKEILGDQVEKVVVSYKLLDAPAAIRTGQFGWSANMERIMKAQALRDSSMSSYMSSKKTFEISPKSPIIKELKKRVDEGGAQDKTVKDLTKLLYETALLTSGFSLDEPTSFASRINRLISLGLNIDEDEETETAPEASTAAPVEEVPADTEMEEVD

Row | SMILES | melting point | IC50 [1] | IC50 (Hsp82)
1 | Cc1nn(-c2ccc(C(N)=O)c(NC3CC4CCC3O4)c2)c2cccc(-c3cnc4ccccc4c3)c12 (stereo not drawn) [Example 14, 4-(3-methyl-4-quinolin-3-ylindazol-1-yl)-2-[exo-(7-oxabicyclo[2.2.1]hept-2-yl)amino]benzamide] | 170 to 172 °C | < 1000 nM | –
2 | Cc1nn(-c2cnc(C(N)=O)c(NCCc3ccccn3)c2)c2cccc(-c3cnc4ccccc4c3)c12 [Example 18, 5-[3-methyl-4-quinolin-3-ylindazol-1-yl]-3-[2-pyridin-2-ylethylamino]pyridine-2-carboxamide] | – | 1000 to 10000 nM | < 1000 nM
